Assay results as given in the supplement of paper PMC4862054.

Assays:
Conditions in all cases: incubation time: 72 h
MDA-MB-436 [1] = test: normalised response (% of control), CellTox Green; higher = less cell death (100 = DMSO, 0 = benzethonium chloride kill control)
Procedure, shortened: (§1)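 CellTox Green fluorescence (485/520 nm) and, after 10 min at room temperature, CellTiter-Glo luminescence were read from breast cancer cell lines incubated 72 h in 384-well plates. Cells were seeded as 20 µl suspension onto compound at 5 concentrations in 10-fold steps over a 10,000-fold range chosen per compound. Each plate was normalised to 0.1 % DMSO (100) and a positive kill control (0). Values are normalised signals, one per concentration.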

MFM-223 [2] = test: as above
Procedure, shortened: as §1

Hs578T [3] = test: as above
Procedure, shortened: as §1

MDA-MB-453 [4] = test: as above
Procedure, shortened: as §1

CAL-148 [5] = test: as above
Procedure, shortened: as §1

BT-474 [6] = test: as above
Procedure, shortened: as §1

HCC1143 [7] = test: as above
Procedure, shortened: as §1

MDA-MB-468 [8] = test: as above
Procedure, shortened: as §1

CAL-51 [9] = test: as above
Procedure, shortened: as §1

HDQ-P1 [10] = test: as above
Procedure, shortened: as §1

CAL-85-1 [11] = test: as above
Procedure, shortened: as §1

BT-549 [12] = test: as above
Procedure, shortened: as §1

DU-4475 [13] = test: as above
Procedure, shortened: as §1

HCC1599 [14] = test: as above
Procedure, shortened: as §1

MDA-MB-231 [15] = test: as above
Procedure, shortened: as §1

HCC1937 [16] = test: as above
Procedure, shortened: as §1

CAL-120 [17] = test: as above
Procedure, shortened: as §1

MCF-10A [18] = test: as above
Procedure, shortened: as §1

MDA-MB-436 [19] = test: normalised response (% of control), CellTiter-Glo; higher = more viable cells (100 = DMSO, 0 = benzethonium chloride kill control)
Procedure: (§2)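 DSRT, 72 h incubation, CellTox Green / CellTiter-Glo readout. Signal is normalised to DMSO and benzethonium chloride controls. Value is the normalised response at dose 3.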

SK-BR-3 = test: as above
Procedure: as §2

MFM-223 [20] = test: as above
Procedure: as §2

Hs578T [21] = test: as above
Procedure: as §2

MDA-MB-453 [22] = test: as above
Procedure: as §2

CAL-148 [23] = test: as above
Procedure: as §2

BT-474 [24] = test: as above
Procedure: as §2

HCC1143 [25] = test: as above
Procedure: as §2

MDA-MB-468 [26] = test: as above
Procedure: as §2

CAL-51 [27] = test: as above
Procedure: as §2

HDQ-P1 [28] = test: as above
Procedure: as §2

CAL-85-1 [29] = test: as above
Procedure: as §2

BT-549 [30] = test: as above
Procedure: as §2

DU-4475 [31] = test: as above
Procedure: as §2

HCC1599 [32] = test: as above
Procedure: as §2

MDA-MB-231 [33] = test: as above
Procedure: as §2

HCC1937 [34] = test: as above
Procedure: as §2

CAL-120 [35] = test: as above
Procedure: as §2

MCF-10A [36] = test: as above
Procedure: as §2

SMILES	normalised response (MDA-MB-436 [1]) [%]	normalised response (MFM-223 [2]) [%]	normalised response (Hs578T [3]) [%]	normalised response (MDA-MB-453 [4]) [%]	normalised response (CAL-148 [5]) [%]	normalised response (BT-474 [6]) [%]	normalised response (HCC1143 [7]) [%]	normalised response (MDA-MB-468 [8]) [%]	normalised response (CAL-51 [9]) [%]	normalised response (HDQ-P1 [10]) [%]	normalised response (CAL-85-1 [11]) [%]	normalised response (BT-549 [12]) [%]	normalised response (DU-4475 [13]) [%]	normalised response (HCC1599 [14]) [%]	normalised response (MDA-MB-231 [15]) [%]	normalised response (HCC1937 [16]) [%]	normalised response (CAL-120 [17]) [%]	normalised response (MCF-10A [18]) [%]	normalised response (MDA-MB-436 [19]) [%]	normalised response (SK-BR-3) [%]	normalised response (MFM-223 [20]) [%]	normalised response (Hs578T [21]) [%]	normalised response (MDA-MB-453 [22]) [%]	normalised response (CAL-148 [23]) [%]	normalised response (BT-474 [24]) [%]	normalised response (HCC1143 [25]) [%]	normalised response (MDA-MB-468 [26]) [%]	normalised response (CAL-51 [27]) [%]	normalised response (HDQ-P1 [28]) [%]	normalised response (CAL-85-1 [29]) [%]	normalised response (BT-549 [30]) [%]	normalised response (DU-4475 [31]) [%]	normalised response (HCC1599 [32]) [%]	normalised response (MDA-MB-231 [33]) [%]	normalised response (HCC1937 [34]) [%]	normalised response (CAL-120 [35]) [%]	normalised response (MCF-10A [36]) [%]
CC(=O)O[C@@]12CO[C@@H]1C[C@H](O)[C@@]1(C)C(=O)[C@H](O)C3=C(C)[C@@H](OC(=O)[C@H](O)[C@@H](NC(=O)OC(C)(C)C)c4ccccc4)C[C@@](O)([C@@H](OC(=O)c4ccccc4)[C@H]21)C3(C)C [Docetaxel] (10 nM)	79.8	77.9	39.5	99.3	61.8	65.8	88.9	104	11.5	-5.27	26.6	63.4	94	95.8	-111	24.7	88.8	56.1	40.7	12.2	54.3	28.1	61.2	38.2	67.8	35.5	22.7	43.1	69.4	26.6	20.5	68.8	71.9	53.4	67.3	61.7	46.2
O=C1CN2Cc3c(ccc(Cl)c3Cl)N=C2N1 [Anagrelide] (100 nM)	105	68.7	104	92.5	100	99.4	108	146	51.3	101	104	77.3	98.5	86.8	96.2	103	98	100	94.3	103	101	98.5	111	94.1	93.7	101	99.5	63.1	97.2	97	105	96.9	104	94.7	95.8	96	98.4
Cc1ccc([N+](=O)[O-])cc1S(=O)(=O)N(C)/N=C/c1cnc2ccc(Br)cn12 [PIK-75] (100 nM)	50.7	84	17.7	101	36.5	78.3	89.3	84.6	7.25	77.6	22	65.2	71.8	79.3	-1.87	78.6	85.3	17.8	11.2	19.3	31.3	14.7	56	44.8	18.7	38.8	14.4	12.6	22.1	14.4	8.06	8.8	47.9	8.41	36.9	38.3	10.5
O=NN(CCCl)C(=O)NCCCl [Carmustine] (100 nM)	61.7	101	100	91.5	100	99.1	101	52.9	99.1	106	101	90.8	95.1	97.9	100	103	95.2	93.4	101	99.7	98.3	105	101	92.3	97.7	100	101	85	100	101	111	101	88	97.3	95.8	95.5	92.5
